# Experiments:
# [1] = tested on: Mycobacterium tuberculosis; experiment: Antimycobacterial activity against Mycobacterium tuberculosis H37Rv; assay type: functional
# [2] = tested on: Klebsiella pneumoniae; experiment: Antibacterial activity against extended spectrum beta-lactamase producing Klebsiella pneumoniae J 14368/08 after 24 hrs by broth microdilution method; assay type: functional; details: J 14368/08, 24 h
# [3] = Cytotoxicity against human HeLa cells assessed as cell viability at 30 uM after 48 hrs by MTT assay; assay type: cell-based; details: read-out: Activity
# [4] = tested on: Enterococcus faecalis; experiment: Antibacterial activity against Enterococcus faecalis J 14365/08 after 48 hrs by broth microdilution method; assay type: functional; details: J 14365/08, 48 h
# [5] = tested on: Mycobacterium kansasii; experiment: Antimycobacterial activity against Mycobacterium kansasii 6509/96 after 7 days by micromethod; assay type: functional; details: 6509/96, 168 h
# [6] = tested on: Candida tropicalis; experiment: Antifungal activity against Candida tropicalis 156 after 24 hrs by broth microdilution method; assay type: functional; details: Candida tropicalis, 156, 24 h
# [7] = tested on: Nakaseomyces glabratus; experiment: Antifungal activity against Candida glabrata 20/I after 48 hrs by broth microdilution method; assay type: functional
# [8] = tested on: Aspergillus fumigatus; experiment: Antifungal activity against Aspergillus fumigatus 231 after 48 hrs by broth microdilution method; assay type: functional, organism-based; details: Aspergillus fumigatus, 231, 48 h
# [9] = tested on: Staphylococcus aureus; experiment: Antibacterial activity against methicillin-resistant Staphylococcus aureus H 5996/08 after 48 hrs by broth microdilution method; assay type: functional; details: H 5996/08, 48 h
# [10] = tested on: Mycobacterium kansasii; experiment: Antimycobacterial activity against Mycobacterium kansasii CNCTC My 235/80 after 14 days by micromethod; assay type: functional; details: CNCTC My 235/80, 336 h
# [11] = Cytotoxicity against human HuH7 cells assessed as reduction in cell viability after 48 hrs by MTT assay; assay type: cell-based; details: Huh-7, 48 h
# [12] = tested on: Candida albicans; experiment: Antifungal activity against Candida albicans ATCC 44859 after 48 hrs by broth microdilution method; assay type: functional; details: ATCC 44859, 48 h
# [13] = tested on: Staphylococcus aureus; experiment: Antibacterial activity against Staphylococcus aureus ATCC 6538 after 48 hrs by broth microdilution method; assay type: functional; details: ATCC 6538, 48 h
# [14] = tested on: Mycobacterium kansasii; experiment: Antimycobacterial activity against Mycobacterium kansasii CNCTC My 235/80 after 7 days by micromethod; assay type: functional; details: CNCTC My 235/80, 168 h
# [15] = tested on: Lichtheimia corymbifera; experiment: Antifungal activity against Absidia corymbifera 272 after 24 hrs by broth microdilution method; assay type: functional, organism-based; details: Lichtheimia corymbifera, 272, 24 h
# [16] = tested on: Lichtheimia corymbifera; experiment: Antifungal activity against Absidia corymbifera 272 after 48 hrs by broth microdilution method; assay type: functional, organism-based; details: Lichtheimia corymbifera, 272, 48 h
# [17] = tested on: Escherichia coli; experiment: Antibacterial activity against Escherichia coli ATCC 8739 after 48 hrs by broth microdilution method; assay type: functional; details: ATCC 8739, ATCC 8739, 48 h
# [18] = tested on: Staphylococcus epidermidis; experiment: Antibacterial activity against Staphylococcus epidermidis H 6966/08 after 24 hrs by broth microdilution method; assay type: functional; details: H 6966/08, 24 h
# [19] = tested on: Staphylococcus epidermidis; experiment: Antibacterial activity against Staphylococcus epidermidis H 6966/08 after 48 hrs by broth microdilution method; assay type: functional; details: H 6966/08, 48 h
# [20] = tested on: HepG2; experiment: Cytotoxicity against human HepG2 cells assessed as reduction in cell viability after 48 hrs by MTT assay; assay type: cell-based; details: HepG2, 48 h
# [21] = tested on: Mycobacterium kansasii; experiment: Antimycobacterial activity against Mycobacterium kansasii 6509/96 after 21 days by micromethod; assay type: functional; details: 6509/96, 504 h
# [22] = tested on: Trichosporon asahii; experiment: Antifungal activity against Trichosporon asahii 1188 after 24 hrs by broth microdilution method; assay type: functional; details: Trichosporon asahii, 1188, 24 h
# [23] = tested on: Klebsiella pneumoniae; experiment: Antibacterial activity against Klebsiella pneumoniae D 11750/08 after 24 hrs by broth microdilution method; assay type: functional; details: D 11750/08, 24 h
# [24] = tested on: Nakaseomyces glabratus; experiment: Antifungal activity against Candida glabrata 20/I after 24 hrs by broth microdilution method; assay type: functional
# [25] = tested on: Pichia kudriavzevii; experiment: Antifungal activity against Candida krusei E28 after 48 hrs by broth microdilution method; assay type: functional; details: E28, 48 h
# [26] = Cytotoxicity against MDCK2 cells assessed as reduction in cell viability after 48 hrs by MTT assay; assay type: cell-based; details: Canis lupus familiaris, MDCK-II
# [27] = Cytotoxicity against human HuH7 cells assessed as cell viability at 30 uM after 48 hrs by MTT assay; assay type: cell-based, Huh-7; details: read-out: Activity
# [28] = tested on: Candida albicans; experiment: Antifungal activity against Candida albicans ATCC 44859 after 24 hrs by broth microdilution method; assay type: functional; details: ATCC 44859, 24 h
# [29] = tested on: Mycobacterium tuberculosis; experiment: Antimycobacterial activity against Mycobacterium tuberculosis CNCTC My 331/88 after 14 days by micromethod; assay type: functional; details: CNCTC My 331/88, 336 h
# [30] = tested on: Mycobacterium kansasii; experiment: Antimycobacterial activity against Mycobacterium kansasii 6509/96 after 14 days by micromethod; assay type: functional; details: 6509/96, 336 h
# [31] = tested on: Klebsiella pneumoniae; experiment: Antibacterial activity against Klebsiella pneumoniae D 11750/08 after 48 hrs by broth microdilution method; assay type: functional; details: D 11750/08, 48 h
# [32] = tested on: Mycobacterium avium; experiment: Antimycobacterial activity against Mycobacterium avium CNCTC My 330/88 after 14 days by micromethod; assay type: functional; details: CNCTC My 330/88, 336 h
# [33] = tested on: Escherichia coli; experiment: Antibacterial activity against Escherichia coli ATCC 8739 after 24 hrs by broth microdilution method; assay type: functional; details: ATCC 8739, ATCC 8739, 24 h
# [34] = tested on: Klebsiella pneumoniae; experiment: Antibacterial activity against extended spectrum beta-lactamase producing Klebsiella pneumoniae J 14368/08 after 48 hrs by broth microdilution method; assay type: functional; details: J 14368/08, 48 h
# [35] = tested on: Mycobacterium kansasii; experiment: Antimycobacterial activity against Mycobacterium kansasii CNCTC My 235/80 after 21 days by micromethod; assay type: functional; details: CNCTC My 235/80, 504 h
# [36] = tested on: Trichophyton mentagrophytes; experiment: Antifungal activity against Trichophyton mentagrophytes 445 after 72 hrs by broth microdilution method; assay type: functional, organism-based; details: Trichophyton mentagrophytes, 445, 72 h
# [37] = tested on: Mycobacterium tuberculosis; experiment: Antimycobacterial activity against Mycobacterium tuberculosis CNCTC My 331/88 after 21 days by micromethod; assay type: functional; details: CNCTC My 331/88, 504 h
# [38] = tested on: HeLa; experiment: Cytotoxicity against human HeLa cells assessed as reduction in cell viability after 48 hrs by MTT assay; assay type: cell-based
# [39] = Cytotoxicity against human HepG2 cells assessed as cell viability at 30 uM after 48 hrs by MTT assay; assay type: cell-based; details: read-out: Activity
# [40] = tested on: Enterococcus faecalis; experiment: Antibacterial activity against Enterococcus faecalis J 14365/08 after 24 hrs by broth microdilution method; assay type: functional; details: J 14365/08, 24 h
# [41] = tested on: Staphylococcus aureus; experiment: Antibacterial activity against methicillin-resistant Staphylococcus aureus H 5996/08 after 24 hrs by broth microdilution method; assay type: functional; details: H 5996/08, 24 h
# [42] = tested on: Staphylococcus aureus; experiment: Antibacterial activity against Staphylococcus aureus ATCC 6538 after 24 hrs by broth microdilution method; assay type: functional; details: ATCC 6538, 24 h
# [43] = tested on: Candida tropicalis; experiment: Antifungal activity against Candida tropicalis 156 after 48 hrs by broth microdilution method; assay type: functional; details: Candida tropicalis, 156, 48 h
# [44] = Cytotoxicity against MDCK2 cells assessed as cell viability at 30 uM after 48 hrs by MTT assay; assay type: cell-based, Canis lupus familiaris, MDCK-II; details: dog, read-out: Activity
# [45] = tested on: Aspergillus fumigatus; experiment: Antifungal activity against Aspergillus fumigatus 231 after 24 hrs by broth microdilution method; assay type: functional, organism-based; details: Aspergillus fumigatus, 231, 24 h
# [46] = tested on: Mycobacterium avium; experiment: Antimycobacterial activity against Mycobacterium avium CNCTC My 330/88 after 21 days by micromethod; assay type: functional; details: CNCTC My 330/88, 504 h
# [47] = tested on: Trichophyton mentagrophytes; experiment: Antifungal activity against Trichophyton mentagrophytes 445 after 120 hrs by broth microdilution method; assay type: functional, organism-based; details: Trichophyton mentagrophytes, 445, 120 h
# [48] = tested on: Pseudomonas aeruginosa; experiment: Antibacterial activity against Pseudomonas aeruginosa ATCC 9027 after 48 hrs by broth microdilution method; assay type: functional; details: ATCC 9027, 48 h
# [49] = tested on: Pichia kudriavzevii; experiment: Antifungal activity against Candida krusei E28 after 24 hrs by broth microdilution method; assay type: functional; details: E28, 24 h
# [50] = tested on: Trichosporon asahii; experiment: Antifungal activity against Trichosporon asahii 1188 after 48 hrs by broth microdilution method; assay type: functional; details: Trichosporon asahii, 1188, 48 h
# [51] = tested on: Pseudomonas aeruginosa; experiment: Antibacterial activity against Pseudomonas aeruginosa ATCC 9027 after 24 hrs by broth microdilution method; assay type: functional; details: ATCC 9027, 24 h
compound,measurement,setting,value
O=[N+]([O-])c1cn2c(n1)OC[C@@H](OCc1ccc(OC(F)(F)F)cc1)C2 [PRETOMANID],MIC,[1],0.11 µM
C[C@]1(COc2ccc(N3CCC(Oc4ccc(OC(F)(F)F)cc4)CC3)cc2)Cn2cc([N+](=O)[O-])nc2O1 [DELAMANID],MIC,[1],0.02 µM
O=[N+]([O-])c1cc(C[Se]c2nnnn2C2CCCCC2)cc([N+](=O)[O-])c1,IC95,[2],> 500 µM
same,"viability at 48 h, 30 µM",[3],66%
same,IC95,[4],> 500 µM
same,MIC,[5],2 µM
same,IC80,[6],> 500 µM
same,IC80,[7],> 500 µM
same,IC50,[8],> 500 µM
same,IC95,[9],> 500 µM
same,MIC,[10],1 µM
same,IC50,[11],> 30 µM
same,IC80,[12],> 500 µM
same,IC95,[13],> 500 µM
same,MIC,[14],1 µM
same,IC50,[15],> 500 µM
same,IC50,[16],> 500 µM
same,IC95,[17],> 500 µM
same,IC95,[18],> 500 µM
same,IC95,[19],> 500 µM
same,IC50,[20],> 30 µM
same,MIC,[21],4 µM
same,IC80,[22],> 500 µM
same,IC95,[23],> 500 µM
same,IC80,[24],> 500 µM
same,IC80,[25],> 500 µM
same,IC50,[26],19 µM
same,"viability at 48 h, 30 µM",[27],125%
same,IC80,[28],> 500 µM
same,MIC,[29],1 µM
same,MIC,[30],4 µM
same,IC95,[31],> 500 µM
same,MIC,[32],32 µM
same,IC95,[33],> 500 µM
same,IC95,[34],> 500 µM
same,MIC,[35],2 µM
same,IC50,[36],> 500 µM
same,MIC,[37],2 µM
same,IC50,[38],> 30 µM
same,"viability at 48 h, 30 µM",[39],87%
same,IC95,[40],> 500 µM
same,IC95,[41],> 500 µM
same,IC95,[42],> 500 µM
same,IC80,[43],> 500 µM
same,"viability at 48 h, 30 µM",[44],7%
same,IC50,[45],> 500 µM
same,MIC,[46],32 µM
same,IC50,[47],> 500 µM
same,IC95,[48],> 500 µM
same,IC80,[49],> 500 µM
same,IC80,[50],> 500 µM
same,IC95,[51],> 500 µM
C[C@H]1COC2(CCN(c3nc(=O)c4cc(C(F)(F)F)cc([N+](=O)[O-])c4s3)CC2)O1 [BTZ-043],MIC,[1],0.0023 µM

# — ChEMBL document CHEMBL3297661, “1-Substituted-5-[(3,5-dinitrobenzyl)sulfanyl]-1H-tetrazoles and their isosteric analogs: A new class of selective antitubercular agents active against drug-susceptible and multidrug-resistant mycobacteria” (Eur J Med Chem, 2014)
